Experimental findings from article PMC5737456 (Pain, 2017) are described below.

Assay type in all cases: cell-based
Experiment [1] addresses T1, human TRESK (hTRESK) (Homo sapiens, UniProt Q7Z418).
T1 sequence (Q7Z418 1-384): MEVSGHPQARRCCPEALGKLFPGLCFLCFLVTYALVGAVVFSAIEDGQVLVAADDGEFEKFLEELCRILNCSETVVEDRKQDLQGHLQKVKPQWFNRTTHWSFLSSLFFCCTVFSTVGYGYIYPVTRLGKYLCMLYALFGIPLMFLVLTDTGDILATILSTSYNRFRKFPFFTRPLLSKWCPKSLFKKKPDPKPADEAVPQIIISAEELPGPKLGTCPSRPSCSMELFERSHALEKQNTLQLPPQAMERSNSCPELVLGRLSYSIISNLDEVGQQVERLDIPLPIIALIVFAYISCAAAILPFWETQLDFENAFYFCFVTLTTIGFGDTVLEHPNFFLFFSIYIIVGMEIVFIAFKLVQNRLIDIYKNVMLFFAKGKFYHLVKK
Description: whole-cell patch clamp in transfected HEK293 cells, single concentration […]. As to conditions: HEK293, read-out: % inhibition at 20 μM.

A further experiment concerns the target T2, rat TRESK (Rattus norvegicus, UniProt Q6Q1P3).
T2 sequence (Q6Q1P3 1-405): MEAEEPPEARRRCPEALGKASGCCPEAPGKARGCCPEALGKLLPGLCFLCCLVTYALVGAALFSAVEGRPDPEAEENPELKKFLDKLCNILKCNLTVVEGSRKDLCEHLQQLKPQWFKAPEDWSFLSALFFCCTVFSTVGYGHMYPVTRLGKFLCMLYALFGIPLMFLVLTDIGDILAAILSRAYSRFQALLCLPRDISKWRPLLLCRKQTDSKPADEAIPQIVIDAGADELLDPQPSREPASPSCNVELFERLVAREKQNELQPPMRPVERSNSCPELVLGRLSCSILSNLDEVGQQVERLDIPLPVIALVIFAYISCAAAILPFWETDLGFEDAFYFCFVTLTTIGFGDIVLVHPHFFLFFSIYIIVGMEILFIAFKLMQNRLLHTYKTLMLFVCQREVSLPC
Description: whole-cell patch clamp in transfected HEK293 cells, […].

In experiment [2] the target is T1, human TRESK (hTRESK). The experiment in a line: whole-cell patch clamp in transfected HEK293 cells, dose-response.
The target of a further experiment is T3, human TREK-2 (hTREK-2) (Homo sapiens, UniProt P57789).
T3 sequence (P57789 1-538): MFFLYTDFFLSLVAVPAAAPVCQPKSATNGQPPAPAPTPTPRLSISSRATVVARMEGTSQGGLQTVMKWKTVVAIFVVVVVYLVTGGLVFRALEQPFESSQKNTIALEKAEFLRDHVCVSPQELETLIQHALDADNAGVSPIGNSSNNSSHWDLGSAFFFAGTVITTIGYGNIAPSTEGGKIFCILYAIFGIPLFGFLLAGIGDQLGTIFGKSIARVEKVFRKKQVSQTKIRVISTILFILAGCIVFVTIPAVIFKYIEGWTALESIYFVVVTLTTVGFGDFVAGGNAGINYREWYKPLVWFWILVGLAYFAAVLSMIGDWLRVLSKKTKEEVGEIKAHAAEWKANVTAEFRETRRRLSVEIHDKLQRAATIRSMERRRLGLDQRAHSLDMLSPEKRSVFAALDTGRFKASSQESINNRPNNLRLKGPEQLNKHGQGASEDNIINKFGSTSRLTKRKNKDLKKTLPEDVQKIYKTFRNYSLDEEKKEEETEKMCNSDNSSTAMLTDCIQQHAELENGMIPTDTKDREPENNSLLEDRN
The experiment is described as above.

In a further experiment the target is T4, mouse TRAAK (mTRAAK) (Mus musculus, UniProt O88454).
T4 sequence (O88454 1-398): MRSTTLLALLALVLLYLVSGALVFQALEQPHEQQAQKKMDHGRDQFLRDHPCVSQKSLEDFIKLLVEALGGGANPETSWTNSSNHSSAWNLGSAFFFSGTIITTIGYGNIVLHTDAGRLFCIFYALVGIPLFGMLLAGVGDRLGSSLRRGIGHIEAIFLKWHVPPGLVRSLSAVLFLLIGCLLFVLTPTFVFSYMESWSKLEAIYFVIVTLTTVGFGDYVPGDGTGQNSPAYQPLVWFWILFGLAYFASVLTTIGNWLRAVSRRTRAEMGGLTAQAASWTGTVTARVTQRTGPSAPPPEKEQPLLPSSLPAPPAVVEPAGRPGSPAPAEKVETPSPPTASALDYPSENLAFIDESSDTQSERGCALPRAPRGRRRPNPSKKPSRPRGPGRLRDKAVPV
The description is as above.

The target in another experiment is T5, mouse TRESK (mTRESK) (Mus musculus, UniProt Q6VV64).
T5 sequence (Q6VV64 1-394): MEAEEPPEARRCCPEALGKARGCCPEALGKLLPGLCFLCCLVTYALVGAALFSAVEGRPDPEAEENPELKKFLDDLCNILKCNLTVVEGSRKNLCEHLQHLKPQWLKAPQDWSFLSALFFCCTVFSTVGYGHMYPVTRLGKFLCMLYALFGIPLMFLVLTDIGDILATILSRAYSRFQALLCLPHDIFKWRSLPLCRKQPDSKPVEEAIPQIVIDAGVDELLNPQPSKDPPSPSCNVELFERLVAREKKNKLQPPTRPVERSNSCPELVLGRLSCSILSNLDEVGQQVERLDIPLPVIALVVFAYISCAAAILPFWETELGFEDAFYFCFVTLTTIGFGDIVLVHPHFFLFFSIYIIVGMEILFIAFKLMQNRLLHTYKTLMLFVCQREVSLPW
Description: whole-cell patch clamp dose-response.

Molecules are shown by their SMILES.

`CC1(C)[C@H](C(=O)O[C@H](C#N)c2cccc(Oc3ccccc3)c2)[C@@H]1C=C(Br)Br` [DM, deltamethrin]: the inhibition at 20 µM on human TRESK (hTRESK) [1] was 30%.
In the case of `CC1(C)C(C=C(Cl)Cl)C1C(=O)OCc1cccc(Oc2ccccc2)c1` (stereo not shown) [PM, permethrin], at human TRESK (hTRESK) [1], the inhibition at 20 µM was 27%.
For the compound `CC(C)=CC1C(C(=O)OCN2C(=O)C3=C(CCCC3)C2=O)C1(C)C` (stereo not shown) [TM, Tetramethrin], the “whole-cell patch clamp in transfected HEK293 cells, 20 μM” value at rat TRESK was “TM was also tested on rat and mouse TRESK orthologs, with similar inhibitory effects”. Also, the IC50 against human TRESK (hTRESK) [2] turned out to be 10.7 µM; on human TREK-2 (hTREK-2), 75.6 µM; against mouse TRAAK (mTRAAK) it was 12.6 µM; against mouse TRESK (mTRESK) it was 34.9 µM.
